Experimental data reported in patent publication US20230192661A1, “1, 4, 5, 6-TETRAHYDROPYRIMIDINE-2-AMINE DERIVATIVE” (UBE Corporation, priority 2020, published 2023).

Assay: Transcellular transport test using Caco2 cell
Type: in vitro ADME
Conditions: human, Caco-2; Caco2 monolayer, A-to-B, 10 μM compound, pH 7.4, 90 minutes
Experimental: Caco2 cells (purchased from ATCC) were cultured in DMEM medium (Thermo Fisher Scientific, Inc., 11965) containing 10% FBS (Thermo Fisher Scientific, Inc., 10082) and 1% penicillin/streptomycin/amphotericin B (Thermo Fisher Scientific, Inc., 15240). A transcellular transport test was carried out in accordance with MultiScreen Caco2 Drug Transport Assembly in a 96-well system (Application Note AN1727EN, MultiScreen Caco-2 Assay System, Merck) by partially modifying it. The Caco2 cells were inoculated at a cell density of 4×10^4 cells/well onto a micropore polycarbonate insert of a 96-well plate (Merck, Millcell-96 culture insert plate 0.4 μm pore size, well membrane area=0.11 cm^2, PSHT004S5) and cultured for 20 to 22 days, and the resulting monolayer was used in the transcellular transport test. The medium of the inoculated cells was replaced with a fresh one every 3 to 4 days.
Apical-to-basolateral (A-to-B) transport in the Caco2 cell monolayer membrane was performed by using HBSS (Thermo Fisher Scientific, Inc., 14025) medium (pH=7.4) containing 20 mM HEPES (Thermo Fisher Scientific, Inc., 15630), and adding HEPES-containing HBSS medium containing 10 μM compound (a 10 mM solution of the compound in DMSO was added at a 1000-fold dilution; final DMSO concentration: 0.1%) at 75 μL/well to the apical side and HEPES-containing HBSS medium supplemented with no compound at 250 μL/well to the basolateral side, followed by culture at 37° C. for 90 minutes. After culture, a 100 μL aliquot was collected from the basolateral side, and the concentration of a permeated compound was measured by LC-MS/MS under measurement conditions mentioned later. Papp (apparent permeability; cm/sec) was calculated from the determined concentration. Papp was determined according to the expression given below by calculating the slope (dA/dt; nmol/sec) of a straight line drawn between two points 0 minutes and zero amount of the compound in a graph plotted with an assay time (90 min) on the abscissa against the amount of the compound in the solution on the permeated side on the ordinate. As for an assay concentration, the concentration in the compound in the HEPES-containing HBSS medium containing the added compound was measured by UV-HPLC under measurement conditions mentioned later.
Papp (cm/sec)=C0×S×(dA/dt)
C0: assay concentration, S: plate membrane area=0.11 cm^2

SMILES	Papp A→B at 90 min, 10 μM [×10⁻⁶ cm/s]
O=C(O)C[C@H](NC(=O)CNC(=O)c1cc(NC2=NCC(F)CN2)c2cn[nH]c2c1)c1cc(Br)cc(Br)c1 (stereo partly drawn) [Example 19-(b), (3S)-3-(3,5-dibromophenyl)-3-(2-(4-((5-fluoro-1,4,5,6-tetrahydropyrimidin-2-yl)amino)-1H-indazole-6-carboxamido)acetamido)propanoic acid]	> 1
O=C(O)C[C@H](NC(=O)CNC(=O)c1cc(NC2=NCC(F)CN2)c2cn[nH]c2c1)c1cc(Br)cc(I)c1 (stereo partly drawn) [Example 20-(b), (3S)-3-(3-bromo-5-iodophenyl)-3-(2-(4-((5-fluoro-1,4,5,6-tetrahydropyrimidin-2-yl)amino)-1H-indazole-6-carboxamido)acetamido)propanoic acid]	> 1
O=C(O)C[C@H](NC(=O)CNC(=O)c1cc(NC2=NCC(F)CN2)c2cn[nH]c2c1)c1cc(Cl)cc(I)c1 (stereo partly drawn) [Example 21-(b), (3S)-3-(3-chloro-5-iodophenyl)-3-(2-(4-((5-fluoro-1,4,5,6-tetrahydropyrimidin-2-yl)amino)-1H-indazole-6-carboxamido)acetamido)propanoic acid]	> 1
O=C(O)C[C@H](NC(=O)CNC(=O)c1cc(NC2=NCC(F)CN2)c2cn[nH]c2c1)c1cc(Cl)ccc1F (stereo partly drawn) [Example 22-(b), (3S)-3-(5-chloro-2-fluorophenyl)-3-(2-(4-((5-fluoro-1,4,5,6-tetrahydropyrimidin-2-yl)amino)-1H-indazole-6-carboxamido)acetamido)propanoic acid]	> 1
O=C(O)C[C@H](NC(=O)CNC(=O)c1cc(NC2=NCC(F)CN2)c2cn[nH]c2c1)c1cc(Br)ccc1F (stereo partly drawn) [Example 23-(b), (3S)-3-(5-bromo-2-fluorophenyl)-3-(2-(4-((5-fluoro-1,4,5,6-tetrahydropyrimidin-2-yl)amino)-1H-indazole-6-carboxamido)acetamido)propanoic acid]	> 1
O=C(O)C[C@H](NC(=O)CNC(=O)c1cc(NC2=NCC(F)CN2)c2cn[nH]c2c1)c1cc(OC(F)F)cc(C(F)(F)F)c1 (stereo partly drawn) [Example 24-(b), (3S)-3-(3-(difluoromethoxy)-5-(trifluoromethyl)phenyl)-3-(2-(4-((5-fluoro-1,4,5,6-tetrahydropyrimidin-2-yl)amino)-1H-indazole-6-carboxamido)acetamido)propanoic acid]	0.5 to 1
O=C(O)C[C@H](NC(=O)CNC(=O)c1cc(NC2=NCC(F)CN2)c2cn[nH]c2c1)c1cc(Cl)cc(OC(F)F)c1 (stereo partly drawn) [Example 25-(b), (3S)-3-(3-chloro-5-(difluoromethoxy)phenyl)-3-(2-(4-((5-fluoro-1,4,5,6-tetrahydropyrimidin-2-yl)amino)-1H-indazole-6-carboxamido)acetamido)propanoic acid]	> 1
O=C(O)C[C@H](NC(=O)CNC(=O)c1cc(NC2=NCC(F)CN2)c2cn[nH]c2c1)c1cc(Br)cc(OC(F)F)c1 (stereo partly drawn) [Example 26-(b), (3S)-3-(3-bromo-5-(difluoromethoxy)phenyl)-3-(2-(4-((5-fluoro-1,4,5,6-tetrahydropyrimidin-2-yl)amino)-1H-indazole-6-carboxamido)acetamido)propanoic acid]	> 1
O=C(O)C[C@H](NC(=O)CNC(=O)c1cc(NC2=NCC(F)CN2)c2cn[nH]c2c1)c1ccc(F)c(OC(F)F)c1 (stereo partly drawn) [Example 27-(b), (3S)-3-(3-(difluoromethoxy)-4-fluorophenyl)-3-(2-(4-((5-fluoro-1,4,5,6-tetrahydropyrimidin-2-yl)amino)-1H-indazole-6-carboxamido)acetamido)propanoic acid]	> 1
O=C(O)C[C@H](NC(=O)CNC(=O)c1cc(NC2=NCC(F)CN2)c2cn[nH]c2c1)c1cc(OC(F)F)ccc1F (stereo partly drawn) [Example 28-(b), (3S)-3-(5-(difluoromethoxy)-2-fluorophenyl)-3-(2-(4-((5-fluoro-1,4,5,6-tetrahydropyrimidin-2-yl)amino)-1H-indazole-6-carboxamido)acetamido)propanoic acid]	> 1
O=C(O)C[C@H](NC(=O)CNC(=O)c1cc(NC2=NCC(F)CN2)c2cn[nH]c2c1)c1cc(OC(F)F)cc(-n2cccn2)c1 (stereo partly drawn) [Example 29-(b), (3S)-3-(3-(difluoromethoxy)-5-(1H-pyrazol-1-yl)phenyl)-3-(2-(4-((5-fluoro-1,4,5,6-tetrahydropyrimidin-2-yl)amino)-1H-indazole-6-carboxamido)acetamido)propanoic acid]	0.1 to 0.5
O=C(O)C[C@H](NC(=O)CNC(=O)c1cc(NC2=NCC(F)CN2)c2cn[nH]c2c1)c1cc(OC(F)F)cc(OC(F)F)c1 (stereo partly drawn) [Example 30-(b), (3S)-3-(3,5-bis(difluoromethoxy)phenyl)-3-(2-(4-((5-fluoro-1,4,5,6-tetrahydropyrimidin-2-yl)amino)-1H-indazole-6-carboxamido)acetamido)propanoic acid]	0.5 to 1
O=C(O)C[C@H](NC(=O)CNC(=O)c1cc(NC2=NCC(F)CN2)c2cn[nH]c2c1)c1cc(Cl)cc(OC(F)(F)F)c1 (stereo partly drawn) [Example 31-(b), (3S)-3-(3-chloro-5-(trifluoromethoxy)phenyl)-3-(2-(4-((5-fluoro-1,4,5,6-tetrahydropyrimidin-2-yl)amino)-1H-indazole-6-carboxamido)acetamido)propanoic acid]	> 1
O=C(O)C[C@H](NC(=O)CNC(=O)c1cc(NC2=NCC(F)CN2)c2cn[nH]c2c1)c1cc(Br)cc(OC(F)(F)F)c1 (stereo partly drawn) [Example 32-(b), (3S)-3-(3-bromo-5-(trifluoromethoxy)phenyl)-3-(2-(4-((5-fluoro-1,4,5,6-tetrahydropyrimidin-2-yl)amino)-1H-indazole-6-carboxamido)acetamido)propanoic acid]	> 1
O=C(O)C[C@H](NC(=O)CNC(=O)c1cc(NC2=NCC(F)CN2)c2cn[nH]c2c1)c1cc(OC(F)(F)F)ccc1F (stereo partly drawn) [Example 33-(b), (3S)-3-(2-(4-((5-fluoro-1,4,5,6-tetrahydropyrimidin-2-yl)amino)-1H-indazole-6-carboxamido)acetamido)-3-(2-fluoro-5-(trifluoromethoxy)phenyl)propanoic acid]	> 1
O=C(O)C[C@H](NC(=O)CNC(=O)c1cc(NC2=NCC(F)CN2)c2cn[nH]c2c1)c1ccc(F)c(OC(F)(F)F)c1 (stereo partly drawn) [Example 34-(b), (3S)-3-(2-(4-((5-fluoro-1,4,5,6-tetrahydropyrimidin-2-yl)amino)-1H-indazole-6-carboxamido)acetamido)-3-(4-fluoro-3-(trifluoromethoxy)phenyl)propanoic acid]	> 1
O=C(O)C[C@H](NC(=O)CNC(=O)c1cc(NC2=NCC(F)CN2)c2cn[nH]c2c1)c1cccc(C(F)(F)F)c1 (stereo partly drawn) [Example 35-(b), (3S)-3-(2-(4-((5-fluoro-1,4,5,6-tetrahydropyrimidin-2-yl)amino)-1H-indazole-6-carboxamido)acetamido)-3-(3-(trifluoromethyl)phenyl)propanoic acid]	> 1
O=C(O)C[C@H](NC(=O)CNC(=O)c1cc(NC2=NCC(F)CN2)c2cn[nH]c2c1)c1cccc(OC(F)(F)F)c1 (stereo partly drawn) [Example 36-(b), (3S)-3-(2-(4-((5-fluoro-1,4,5,6-tetrahydropyrimidin-2-yl)amino)-1H-indazole-6-carboxamido)acetamido)-3-(3-(trifluoromethoxy)phenyl)propanoic acid]	> 1
